One may read the IC50 as the point on the concentration scale where inhibition reaches its midpoint. Broadly, the viability, T/C is the result in the treated group divided by that in the control group, in per cent.

“And” between values parts separate entries of the source, which are not always exact repeats. Equal values may be shown once.

The subject of the assay is 324938-238-R-J1-PDC complex spheroid viability. As to the kind of experiment: Anticancer human tumor 324938-238-R-J1-PDC patient-derived bladder carcinoma cell line growth inhibition. Conditions: for viability, T/C: stronger effect = lower value. The method in brief:
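Complex spheroids of tumor cells with HUVEC and human MSCs, exposed to iadademstat combined with other agents. Each agent tested in half-log steps from near clinical Cmax (else 10 microM top), DMSO ≤0.25%.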
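Note: spheroids also contain HUVEC and human MSCs and agents combined with iadademstat; spheroids exposed to agents for 7 days before readout.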

Consider `Nc1ncn(C2CC(O)C(CO)S2)c(=O)n1` (configuration not stated) + NC1CCC(NC2CC2c2ccccc2)CC1, for which the IC50 was determined as 26.6 nM (curve of first compound, second compound 0.1 µM); 19.9 nM (curve of first compound, second compound 0.316 µM); 22.8 nM (curve of first compound, second compound 1 µM); 13.1 nM (curve of first compound, second compound 3.16 µM); 16.3 nM (curve of first compound, second compound 10 µM). Moreover, the viability, T/C (second compound 0.1 µM, first compound 0.000949 µM) is 71.9%; the viability, T/C (second compound 0.1 µM, first compound 0.003 µM) is 73.7%; the viability, T/C (second compound 0.1 µM, first compound 0.00949 µM) is 62.8%; the viability, T/C (second compound 0.1 µM, first compound 0.03 µM) is 47.2%; the viability, T/C (second compound 0.1 µM, first compound 0.0949 µM) was 34.2%; the viability, T/C (second compound 0.1 µM, first compound 0.3 µM) was 22.8%. Further, the viability, T/C runs as follows: (second compound 0.316 µM, first compound 0.000949 µM) 74.1%; (second compound 0.316 µM, first compound 0.003 µM) 71.8%; (second compound 0.316 µM, first compound 0.00949 µM) 60.1%; (second compound 0.316 µM, first compound 0.03 µM) 43.9%; (second compound 0.316 µM, first compound 0.0949 µM) 30.6%; (second compound 0.316 µM, first compound 0.3 µM) 22.9%. In addition, the viability, T/C (second compound 1 µM, first compound 0.000949 µM) is 77.1%; the viability, T/C (second compound 1 µM, first compound 0.003 µM) is 64.8%; the viability, T/C (second compound 1 µM, first compound 0.00949 µM) is 58.3%; the viability, T/C (second compound 1 µM, first compound 0.03 µM) is 49.3%; the viability, T/C (second compound 1 µM, first compound 0.0949 µM) is 35.6%; the viability, T/C (second compound 1 µM, first compound 0.3 µM) is 23.8%. Moreover, the viability, T/C was 70.6% (second compound 3.16 µM, first compound 0.000949 µM); 62.1% (second compound 3.16 µM, first compound 0.003 µM); 55.3% (second compound 3.16 µM, first compound 0.00949 µM); 39.2% (second compound 3.16 µM, first compound 0.03 µM); 32.7% (second compound 3.16 µM, first compound 0.0949 µM); 22.2% (second compound 3.16 µM, first compound 0.3 µM). Further, the viability, T/C (second compound 10 µM, first compound 0.000949 µM) is 65.9%; the viability, T/C (second compound 10 µM, first compound 0.003 µM) is 64.3%; the viability, T/C (second compound 10 µM, first compound 0.00949 µM) was 51.3%; the viability, T/C (second compound 10 µM, first compound 0.03 µM) is 48.1%; the viability, T/C (second compound 10 µM, first compound 0.0949 µM) was 29.7%; the viability, T/C (second compound 10 µM, first compound 0.3 µM) is 22.3%.

As for `COc1ccc([C@@H](O)c2cc(-c3ncnc4cc(N5CCOCC5)ccc34)c(F)cc2Cl)nn1`, the viability, T/C is 102% (compound 0.0316 µM); 95.8% and 99.8% (compound 0.1 µM); 86.6% and 81.7% (compound 0.316 µM); 69.1% and 64.7% (compound 1 µM); 50.8% and 45.9% (compound 3.16 µM); 32.3% and 27.2% (compound 10 µM). Moreover, the concentration for half-maximal inhibition (IC50) (curve of compound) was 3240 nM and 2340 nM.
